Laboratory results as given in ChEMBL document CHEMBL4152254, “Pyridinyl- and pyridazinyl-3,6-diazabicyclo[3.1.1]heptane-anilines: Novel selective ligands with subnanomolar affinity for α4β2 nACh receptors” (Eur J Med Chem, 2018).
Calls of active or inactive are those of the source. The rule behind the calls is not given here.

What was measured:
Rattus norvegicus = species on record: Rattus norvegicus; experiment: Selectivity ratio of Ki for alpha7 nAChR in rat hippocampal membranes to Ki for alpha4beta2 nAChR in rat cortex membranes; format: cell membranes
[1] = target: T1, Neuronal acetylcholine receptor; alpha3/beta4 (Homo sapiens, UniProt P30926+P32297); experiment: Displacement of [3H]epibatidine from human alpha3beta4 nAChR expressed in HEK293 cell membranes
T1 sequence (P30926 whole entry): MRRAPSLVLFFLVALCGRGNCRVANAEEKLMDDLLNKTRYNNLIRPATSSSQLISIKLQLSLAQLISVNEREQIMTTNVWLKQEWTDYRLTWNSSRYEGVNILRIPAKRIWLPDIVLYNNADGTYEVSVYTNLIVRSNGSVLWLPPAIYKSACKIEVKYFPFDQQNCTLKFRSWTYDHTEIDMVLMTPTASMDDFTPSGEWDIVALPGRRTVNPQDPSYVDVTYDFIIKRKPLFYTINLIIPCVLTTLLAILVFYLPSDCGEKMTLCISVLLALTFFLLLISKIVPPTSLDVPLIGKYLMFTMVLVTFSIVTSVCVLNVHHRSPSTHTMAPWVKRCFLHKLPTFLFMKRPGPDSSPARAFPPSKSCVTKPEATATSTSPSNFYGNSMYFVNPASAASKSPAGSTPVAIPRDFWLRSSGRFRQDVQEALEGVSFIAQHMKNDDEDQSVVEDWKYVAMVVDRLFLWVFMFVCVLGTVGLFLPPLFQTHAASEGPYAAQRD
T1 sequence (P32297 whole entry): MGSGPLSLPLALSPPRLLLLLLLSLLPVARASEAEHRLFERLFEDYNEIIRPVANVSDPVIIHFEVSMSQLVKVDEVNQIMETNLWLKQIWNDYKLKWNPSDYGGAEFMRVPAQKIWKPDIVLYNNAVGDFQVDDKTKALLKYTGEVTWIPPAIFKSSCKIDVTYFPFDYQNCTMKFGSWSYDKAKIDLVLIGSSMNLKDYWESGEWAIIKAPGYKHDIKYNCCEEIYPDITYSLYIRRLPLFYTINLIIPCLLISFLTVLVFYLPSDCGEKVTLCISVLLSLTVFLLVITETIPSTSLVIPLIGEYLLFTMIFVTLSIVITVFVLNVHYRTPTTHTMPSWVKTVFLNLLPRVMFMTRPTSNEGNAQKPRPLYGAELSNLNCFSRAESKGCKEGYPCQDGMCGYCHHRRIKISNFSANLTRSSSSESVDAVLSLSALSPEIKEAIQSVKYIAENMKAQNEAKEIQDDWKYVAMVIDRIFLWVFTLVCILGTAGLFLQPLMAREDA

[2] = target: Neuronal acetylcholine receptor subunit alpha-7 (Rattus norvegicus, UniProt Q05941); experiment: Displacement of [125I]alpha-bungarotoxin from alpha7 nAChR in rat hippocampal membranes; format: cell membranes
Neuronal acetylcholine receptor subunit alpha-7, sequence (Q05941 whole entry): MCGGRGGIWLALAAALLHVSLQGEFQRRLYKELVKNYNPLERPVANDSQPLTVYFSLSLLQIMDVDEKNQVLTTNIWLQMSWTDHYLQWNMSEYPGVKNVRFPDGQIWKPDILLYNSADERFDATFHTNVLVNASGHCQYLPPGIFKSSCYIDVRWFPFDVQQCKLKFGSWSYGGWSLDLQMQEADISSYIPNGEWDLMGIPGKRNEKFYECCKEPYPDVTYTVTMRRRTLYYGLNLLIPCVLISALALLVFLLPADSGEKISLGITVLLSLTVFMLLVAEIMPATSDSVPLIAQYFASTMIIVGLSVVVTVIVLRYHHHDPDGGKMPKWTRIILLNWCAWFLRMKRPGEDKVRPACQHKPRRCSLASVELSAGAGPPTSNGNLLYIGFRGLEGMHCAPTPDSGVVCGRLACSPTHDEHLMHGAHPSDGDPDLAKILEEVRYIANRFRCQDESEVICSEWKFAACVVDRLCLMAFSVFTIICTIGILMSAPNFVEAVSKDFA

[3] = target: Neuronal acetylcholine receptor; alpha4/beta2 (Rattus norvegicus, UniProt P09483+P12390); experiment: Displacement of [3H]epibatidine from alpha4beta2 nAChR in rat cortex membranes; format: cell membranes
Neuronal acetylcholine receptor; alpha4/beta2 (Rattus norvegicus, UniProt P09483+P12390), sequence (P09483 whole entry): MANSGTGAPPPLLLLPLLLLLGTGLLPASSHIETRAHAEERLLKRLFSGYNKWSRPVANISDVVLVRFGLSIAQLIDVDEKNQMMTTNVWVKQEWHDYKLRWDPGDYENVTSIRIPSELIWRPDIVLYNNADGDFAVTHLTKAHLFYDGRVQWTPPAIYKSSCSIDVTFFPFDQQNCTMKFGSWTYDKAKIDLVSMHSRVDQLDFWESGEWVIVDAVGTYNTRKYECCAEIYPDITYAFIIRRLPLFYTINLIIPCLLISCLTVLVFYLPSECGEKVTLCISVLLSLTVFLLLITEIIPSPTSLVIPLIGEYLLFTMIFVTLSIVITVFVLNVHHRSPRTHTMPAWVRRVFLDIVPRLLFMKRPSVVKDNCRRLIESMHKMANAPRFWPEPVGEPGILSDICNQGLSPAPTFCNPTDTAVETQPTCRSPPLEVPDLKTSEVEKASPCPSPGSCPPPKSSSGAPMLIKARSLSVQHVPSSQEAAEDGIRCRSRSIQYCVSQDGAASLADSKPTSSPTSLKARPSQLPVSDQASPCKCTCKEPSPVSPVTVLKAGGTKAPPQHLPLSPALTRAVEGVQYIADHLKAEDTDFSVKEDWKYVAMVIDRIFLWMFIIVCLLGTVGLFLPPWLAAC
Neuronal acetylcholine receptor; alpha4/beta2 (Rattus norvegicus, UniProt P09483+P12390), sequence (P12390 whole entry): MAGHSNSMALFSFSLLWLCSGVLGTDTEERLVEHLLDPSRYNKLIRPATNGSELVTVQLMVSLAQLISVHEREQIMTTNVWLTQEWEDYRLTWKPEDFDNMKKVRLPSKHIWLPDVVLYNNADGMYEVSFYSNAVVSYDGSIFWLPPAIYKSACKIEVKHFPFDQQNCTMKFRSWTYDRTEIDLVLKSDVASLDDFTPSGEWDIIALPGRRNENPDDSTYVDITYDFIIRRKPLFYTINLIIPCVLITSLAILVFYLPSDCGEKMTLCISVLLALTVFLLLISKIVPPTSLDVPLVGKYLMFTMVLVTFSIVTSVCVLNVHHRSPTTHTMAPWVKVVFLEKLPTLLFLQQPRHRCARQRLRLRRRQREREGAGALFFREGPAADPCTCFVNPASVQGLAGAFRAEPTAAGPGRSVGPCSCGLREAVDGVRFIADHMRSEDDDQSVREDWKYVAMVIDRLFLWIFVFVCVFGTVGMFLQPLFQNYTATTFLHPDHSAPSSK

[4] = Selectivity ratio of Ki for human alpha3beta4 nAChR expressed in HEK293 cell membranes to Ki for alpha4beta2 nAChR in rat cortex membranes; format: cell-based
[5] = target: T2, Neuronal acetylcholine receptor; alpha4/beta2 (Homo sapiens, UniProt P17787+P43681); experiment: Agonist activity at alpha4beta2 nAChR (unknown origin); format: protein-complex assay
T2 sequence (P17787 whole entry): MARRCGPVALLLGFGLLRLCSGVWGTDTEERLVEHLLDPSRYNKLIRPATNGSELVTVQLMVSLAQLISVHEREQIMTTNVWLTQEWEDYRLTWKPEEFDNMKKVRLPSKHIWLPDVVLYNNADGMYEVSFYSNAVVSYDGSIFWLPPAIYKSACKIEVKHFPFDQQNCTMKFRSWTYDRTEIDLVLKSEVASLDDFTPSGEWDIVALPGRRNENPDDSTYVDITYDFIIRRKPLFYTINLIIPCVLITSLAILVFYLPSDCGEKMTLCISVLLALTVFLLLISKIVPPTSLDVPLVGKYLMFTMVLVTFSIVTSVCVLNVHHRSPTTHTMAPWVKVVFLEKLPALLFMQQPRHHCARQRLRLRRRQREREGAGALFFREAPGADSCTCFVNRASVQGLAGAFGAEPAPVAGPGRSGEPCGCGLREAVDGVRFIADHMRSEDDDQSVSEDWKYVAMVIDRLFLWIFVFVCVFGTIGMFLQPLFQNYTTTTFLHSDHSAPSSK
T2 sequence (P43681 whole entry): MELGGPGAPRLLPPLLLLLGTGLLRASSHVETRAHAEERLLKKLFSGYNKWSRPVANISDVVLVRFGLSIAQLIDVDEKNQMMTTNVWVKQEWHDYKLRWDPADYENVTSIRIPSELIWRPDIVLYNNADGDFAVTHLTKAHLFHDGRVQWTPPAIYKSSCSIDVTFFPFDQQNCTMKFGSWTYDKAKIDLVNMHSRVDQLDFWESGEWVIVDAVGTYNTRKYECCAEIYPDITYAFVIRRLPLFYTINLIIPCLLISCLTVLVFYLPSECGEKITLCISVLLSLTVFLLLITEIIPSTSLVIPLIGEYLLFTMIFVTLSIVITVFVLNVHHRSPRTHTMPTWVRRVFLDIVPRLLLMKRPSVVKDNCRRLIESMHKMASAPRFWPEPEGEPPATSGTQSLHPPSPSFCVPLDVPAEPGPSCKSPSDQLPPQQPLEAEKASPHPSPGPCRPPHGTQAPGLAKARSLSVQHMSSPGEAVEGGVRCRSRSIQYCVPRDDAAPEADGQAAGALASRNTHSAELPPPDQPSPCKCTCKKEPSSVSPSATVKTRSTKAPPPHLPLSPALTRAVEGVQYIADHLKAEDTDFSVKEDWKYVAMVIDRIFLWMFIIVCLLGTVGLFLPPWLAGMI

[6] = target: Neuronal acetylcholine receptor subunit alpha-7 (Homo sapiens) (UniProt P36544); experiment: Agonist activity at human alpha7 nAChR expressed in rat GH4C1 cells assessed as inward channel current amplitude at 100 uM at -70 mV holding potential by whole cell electrophysiology method; format: cell-based
Neuronal acetylcholine receptor subunit alpha-7 (Homo sapiens), sequence (P36544 whole entry): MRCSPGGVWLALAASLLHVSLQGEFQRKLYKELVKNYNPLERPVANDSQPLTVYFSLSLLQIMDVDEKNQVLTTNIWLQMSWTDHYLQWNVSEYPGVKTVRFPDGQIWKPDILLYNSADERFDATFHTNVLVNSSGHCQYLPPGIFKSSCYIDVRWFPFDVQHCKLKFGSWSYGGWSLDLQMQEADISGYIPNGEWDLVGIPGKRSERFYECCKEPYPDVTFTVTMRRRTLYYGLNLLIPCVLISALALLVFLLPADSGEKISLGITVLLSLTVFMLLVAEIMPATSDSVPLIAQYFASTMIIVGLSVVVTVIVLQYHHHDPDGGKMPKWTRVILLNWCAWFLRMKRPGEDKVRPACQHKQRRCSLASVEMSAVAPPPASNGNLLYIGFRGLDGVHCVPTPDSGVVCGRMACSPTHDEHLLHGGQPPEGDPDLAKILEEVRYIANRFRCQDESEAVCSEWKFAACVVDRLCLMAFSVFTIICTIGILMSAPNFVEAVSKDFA

[7] = target: T1, Neuronal acetylcholine receptor; alpha3/beta4; experiment: Agonist activity at human alpha3beta4 nAChR expressed in rat GH4C1 cells assessed as inward channel current amplitude at -70 mV holding potential by whole cell electrophysiology method; format: cell-based
[8] = target: T2, Neuronal acetylcholine receptor; alpha4/beta2; experiment: Agonist activity at human alpha4beta2 nAChR expressed in rat GH4C1 cells assessed as inward channel current amplitude at -70 mV holding potential by whole cell electrophysiology method; format: cell-based
[9] = target: T2, Neuronal acetylcholine receptor; alpha4/beta2; experiment: Agonist activity at human alpha4beta2 nAChR expressed in rat GH4C1 cells assessed as inward channel current amplitude at 100 uM at -70 mV holding potential by whole cell electrophysiology method relative to acetylcholine; format: cell-based
[10] = target: T1, Neuronal acetylcholine receptor; alpha3/beta4; experiment: Agonist activity at human alpha3beta4 nAChR expressed in rat GH4C1 cells assessed as inward channel current amplitude at 100 uM at -70 mV holding potential by whole cell electrophysiology method relative to acetylcholine; format: cell-based

FC(F)(F)c1ccc(Nc2ccc(N3CC4CC(C3)N4)nn2)cc1 gave a Ratio Ki (Rattus norvegicus) of 294, a Ki [1] of 115 nM and a Ki [2] of 2030 nM. The Ki [3] was 6.9 nM and the Ratio Ki [4] was 17.
Compound Clc1cccc(Nc2cncc(N3CC4CC(C3)N4)c2)c1 has a Ratio Ki (Rattus norvegicus) of 9680, a Ki [1] of 293 nM and a Ki [2] of 1200 nM. The Ki [3] was 0.124 nM and the Ratio Ki [4] was 2360.
With c1cncc(N2C[C@@H]3C[C@H]2CN3)c1 the Ki [5] was 0.15 nM.
Work on Clc1ccc(Nc2ccc(N3CC4CC(C3)N4)nn2)cc1 yielded a Ratio Ki (Rattus norvegicus) of 191, a Ki [2] of 17300 nM and a Ki [3] of 90.4 nM.
Work on Fc1ccc(Nc2ccc(N3CC4CC(C3)N4)cn2)cc1 yielded a Ratio Ki (Rattus norvegicus) of 546, a Ki [1] of 13 nM and a Ki [2] of 1300 nM. The Ki [3] was 2.38 nM and the Ratio Ki [4] was 5.
With FC(F)(F)c1ccc(Nc2ccc(N3CC4CC(C3)N4)cn2)cc1 the Ratio Ki (Rattus norvegicus) was 413, the Ki [1] was 0.818 nM and the Ki [2] was 235 nM. It also gave a Ki [3] of 0.569 nM and a Ratio Ki [4] of 1.
In the case of FC(F)(F)c1ccc(Nc2cncc(N3CC4CC(C3)N4)c2)cc1, the Ratio Ki (Rattus norvegicus) is reported as 499, the Ki [1] is reported as 1.02 nM and the Ki [2] is reported as 186 nM. The Ki [3] was 0.373 nM and the Ratio Ki [4] was 3.
Oc1ccc(Nc2cncc(N3CC4CC(C3)N4)c2)cc1 gave a Ratio Ki (Rattus norvegicus) of 6140, a Ki [1] of 0.988 nM and a Ki [2] of 2100 nM. For the same compound, the Ki [3] was 0.342 nM and the Ratio Ki [4] was 3.
Clc1ccc(N2CC3CCC(C2)N3)nn1 showed a Ki [5] of 4.1 nM.
Compound Clc1cccc(Nc2ccc(N3CC4CC(C3)N4)nn2)c1 has a Ratio Ki (Rattus norvegicus) of 27, a Ki [2] of 41800 nM and a Ki [3] of 1540 nM.
Work on Clc1ccc(Nc2ccc(N3CC4CC(C3)N4)cn2)cc1Cl yielded a Ratio Ki (Rattus norvegicus) of 887, a Ki [1] of 40.9 nM and a Ki [2] of 2040 nM. It also gave a Ki [3] of 2.3 nM and a Ratio Ki [4] of 18.
Work on Clc1ccc(Nc2cncc(N3CC4CC(C3)N4)c2)cc1Cl yielded a Ratio Ki (Rattus norvegicus) of 1520, a Ki [2] of 1900 nM and a Ki [3] of 1.25 nM.
O=[N+]([O-])c1ccc(Nc2cncc(N3CC4CC(C3)N4)c2)cc1 showed a Ratio Ki (Rattus norvegicus) of 10700, a Ki [1] of 0.684 nM and a Ki [2] of 241 nM. It also gave a Ki [3] of 0.0225 nM and a Ratio Ki [4] of 30.
c1ccc(Nc2ccc(N3CC4CC(C3)N4)cn2)cc1 showed a Ratio Ki (Rattus norvegicus) of 179, a Ki [2] of 475 nM and a Ki [3] of 2.66 nM.
Compound Cc1ccc(Nc2ccc(N3CC4CC(C3)N4)nn2)cc1 has a Ratio Ki (Rattus norvegicus) of 490, a Ki [2] of 21700 nM and a Ki [3] of 44.3 nM.
Compound c1cncc(N2CC3CCC(C2)N3)c1 has a Ki [5] of 0.4 nM.
Work on Clc1ccc(Nc2ccc(N3CC4CC(C3)N4)nn2)cc1Cl yielded a Ratio Ki (Rattus norvegicus) of 10, a Ki [2] of 5100 nM and a Ki [3] of 516 nM.
Work on Oc1ccc(Nc2ccc(N3CC4CC(C3)N4)cn2)cc1 yielded a Ratio Ki (Rattus norvegicus) of 310, a Ki [1] of 165 nM and a Ki [2] of 2200 nM. For the same compound, the Ki [3] was 7.1 nM and the Ratio Ki [4] was 23.
With Cc1ccc(Nc2ccc(N3CC4CC(C3)N4)cn2)cc1 the Ratio Ki (Rattus norvegicus) was 1700, the Ki [2] was 88800 nM and the Ki [3] was 52.1 nM.
Work on O=[N+]([O-])c1ccc(Nc2ccc(N3CC4CC(C3)N4)nn2)cc1 yielded a Ratio Ki (Rattus norvegicus) of 80, a Ki [2] of 6900 nM and a Ki [3] of 86.2 nM.
For O=[N+]([O-])c1ccc(Nc2ccc(N3CC4CC(C3)N4)cn2)cc1, the Ratio Ki (Rattus norvegicus) was 2330, the Activity [6] was “inactive” and the Ki [1] was 25 nM. The Ki [2] was 4100 nM, the EC50 [7] was greater than 10000 nM and the Ki [3] was 1.76 nM. For the same compound, the EC50 [8] was greater than 10000 nM and the Ratio Ki [4] was 14.
For Clc1ccc(N2CC3CC2CN3)cn1 (centres undefined), the Ki [5] was 0.018 nM.
Fc1ccc(Nc2cncc(N3CC4CC(C3)N4)c2)cc1 showed a Ratio Ki (Rattus norvegicus) of 4850, a Ki [1] of 1.25 nM and a Ki [2] of 441 nM. The Ki [3] was 0.091 nM and the Ratio Ki [4] was 14.
Work on CN(c1ccccc1)c1cncc(N2CC3CC(C2)N3)c1 yielded a Ratio Ki (Rattus norvegicus) of 154, a Ki [2] of 317 nM and a Ki [3] of 2.06 nM.
For c1ccc(Nc2cncc(N3CC4CC(C3)N4)c2)cc1, the Ratio Ki (Rattus norvegicus) was 333, the Ki [1] was 0.799 nM and the Ki [2] was 26.9 nM. The Ki [3] was 0.0807 nM and the Ratio Ki [4] was 10.
Work on c1cncc(N2C[C@H]3C[C@@H]2CN3)c1 yielded a Ki [5] of 0.02 nM.
CN(c1ccccc1)c1ccc(N2CC3CC(C2)N3)nn1 gave a Ratio Ki (Rattus norvegicus) of 71, a Ki [2] of 101000 nM and a Ki [3] of 1430 nM.
In the case of Clc1ccc(N2CC3CCC(C2)N3)cn1, the Ki [5] is reported as 0.95 nM.
Work on Cc1ccc(Nc2cncc(N3CC4CC(C3)N4)c2)cc1 yielded a Ratio Ki (Rattus norvegicus) of 2030, a Ki [1] of 1.4 nM and a Ki [2] of 300 nM. The Ki [3] was 0.148 nM and the Ratio Ki [4] was 9.
c1cc2c(cc1Nc1ccc(N3CC4CC(C3)N4)cn1)OCO2 showed a Ratio Ki (Rattus norvegicus) of 150, a Ki [2] of 6150 nM and a Ki [3] of 41 nM.
In the case of COc1ccc(Nc2ccc(N3CC4CC(C3)N4)cn2)cc1, the Ratio Ki (Rattus norvegicus) is reported as 412, the Ki [1] is reported as 9.03 nM and the Ki [2] is reported as 3010 nM. The Ki [3] was 7.3 nM and the Ratio Ki [4] was 1.
c1ccc(Nc2ccc(N3CC4CC(C3)N4)nn2)cc1 showed a Ratio Ki (Rattus norvegicus) of 24, a Ki [2] of 10400 nM and a Ki [3] of 441 nM.
In the case of Clc1ccc(Nc2cncc(N3CC4CC(C3)N4)c2)cc1, the Ratio Ki (Rattus norvegicus) is reported as 983, the Ki [1] is reported as 1.2 nM and the Ki [2] is reported as 116 nM. The Ki [3] was 0.118 nM and the Ratio Ki [4] was 10.
Clc1cccc(Nc2ccc(N3CC4CC(C3)N4)cn2)c1 showed a Ratio Ki (Rattus norvegicus) of 1500, a Ki [1] of 4.8 nM and a Ki [2] of 3300 nM. The Ki [3] was 2.2 nM and the Ratio Ki [4] was 2.
COc1ccc(Nc2ccc(N3CC4CC(C3)N4)nn2)cc1 gave a Ratio Ki (Rattus norvegicus) of 87, a Ki [2] of 50200 nM and a Ki [3] of 578 nM.
For Fc1ccc(Nc2ccc(N3CC4CC(C3)N4)nn2)cc1, the Ratio Ki (Rattus norvegicus) was 128, the Ki [2] was 111000 nM and the Ki [3] was 868 nM.
In the case of COc1ccc(Nc2cncc(N3CC4CC(C3)N4)c2)cc1, the Ratio Ki (Rattus norvegicus) is reported as 14000, the Activity [6] is reported as “inactive” and the Ki [1] is reported as 2.2 nM. For the same compound, the Ki [2] was 837 nM, the Emax [9] was 11% and the EC50 [7] was 2900 nM. The Ki [3] was 0.0598 nM, the EC50 [8] was 1900 nM and the Ratio Ki [4] was 37. It also gave an Emax [10] of 42.3%.
Clc1ccc(Nc2ccc(N3CC4CC(C3)N4)cn2)cc1 showed a Ratio Ki (Rattus norvegicus) of 330, a Ki [2] of 823 nM and a Ki [3] of 2.49 nM.
